According to the supplement of paper PMC11061612:

Tests used:
Assay in all cases: combination Emax (second highest fraction inhibited in the dose matrix, 72 h); higher = more inhibition; extreme values may be limits of the assay
[1] = test system: NCI-H358 (Lung Adenocarcinoma)
Outline: (§1)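 Cell lines grown in DMEM/F12 or RPMI with 10% FBS were plated in 1536-well plates and held 24 hours at 37°C, 5% CO2 before 72 hours of exposure to two-drug dose matrices, with DMSO typically at 0.2%. CellTiter-Glo 2.0 luminescence gave viability, which was converted to inhibition. Vehicle wells were set to 0 and blank wells to 1. Combination Emax is the second-highest inhibition in the matrix, and Bliss excess is the observed combination effect minus the expected EA + EB − EA·EB, where EA and EB are the single-agent effects.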

[2] = test system: Hs-766T (Pancreatic Carcinoma)
Outline: as §1

[3] = test system: TE-1 (Esophageal Squamous Cell Carcinoma)
Outline: as §1

ACHN (Kidney Carcinoma) = test system: ACHN (Kidney Carcinoma)
Outline: as §1

[4] = test system: C-4-I (Cervical Carcinoma)
Outline: as §1

[5] = test system: SU8686 (Pancreatic Carcinoma)
Outline: as §1

[6] = test system: HSC-4 (Oral Cavity Carcinoma)
Outline: as §1

TK10 (Kidney Carcinoma) = test system: TK10 (Kidney Carcinoma)
Outline: as §1

[7] = test system: LU-65 (Non-Small Cell Lung Carcinoma)
Outline: as §1

[8] = test system: SCC-15 (Oral Cavity Carcinoma)
Outline: as §1

[9] = test system: Ca9-22 (Head and Neck Carcinoma)
Outline: as §1

[10] = test system: OE19 (Esophageal Adenocarcinoma)
Outline: as §1

[11] = test system: OSC-20 (Oral Cavity Carcinoma)
Outline: as §1

[12] = test system: EFM-19 (Breast Carcinoma)
Outline: as §1

[13] = test system: KYSE-450 (Esophageal Squamous Cell Carcinoma)
Outline: as §1

[14] = test system: NEC8 (Other Solid Carcinomas)
Outline: as §1

[15] = test system: HOP-62 (Lung Adenocarcinoma)
Outline: as §1

EW-24 (Ewing's Sarcoma) = test system: EW-24 (Ewing's Sarcoma)
Outline: as §1

[16] = test system: SW13 (Other Solid Carcinomas)
Outline: as §1

TGW (Neuroblastoma) = test system: TGW (Neuroblastoma)
Outline: as §1

SMILES | combination Emax [1] | combination Emax [2] | combination Emax [3] | combination Emax (ACHN (Kidney Carcinoma)) | combination Emax [4] | combination Emax [5] | combination Emax [6] | combination Emax (TK10 (Kidney Carcinoma)) | combination Emax [7] | combination Emax [8] | combination Emax [9] | combination Emax [10] | combination Emax [11] | combination Emax [12] | combination Emax [13] | combination Emax [14] | combination Emax [15] | combination Emax (EW-24 (Ewing's Sarcoma)) | combination Emax [16] | combination Emax (TGW (Neuroblastoma))
Cn1cnc2c(F)c(Nc3ccc(Br)cc3Cl)c(C(=O)NOCCO)cc21 [Selumetinib] + C[C@@H]1COCCN1C2=NC(=NC(=C2)C3(CC3)[S@](=N)(=O)C)C4=C5C=CNC5=NC=C4 [AZD6738] (first compound max 10 µM, 7x7, partner max 10 µM) | 0.586 | 0.567 | 0.585 | 0.804 | 0.908 | 0.113 | 0.595 | 0.573 | 0.808 | 0.435 | 0.869 | 0.606 | 0.295 | 0.138 | 0.356 | 0.764 | 0.569 | 0.667 | 0.628 | 0.577
NC1(C(=O)N[C@@H](CCO)c2ccc(Cl)cc2)CCN(c2ncnc3[nH]ccc23)CC1 [Capivasertib] + CCN(CCO)CCCOc1ccc2c(Nc3cc(CC(=O)Nc4cccc(F)c4)[nH]n3)ncnc2c1 [AZD2811] (first compound max 10 µM, 7x7, partner max 1 µM) | 0.394 | 0.23 | 0.383 | 0.355 | 0.402 | 0.121 | 0.514 | 0.403 | 0.461 | 0.334 | 0.445 | 0.847 | 0.387 | 0.586 | 0.414 | 0.199 | 0.483 | 0.659 | 0.515 | 0.273
CC(=O)Nc1cccc(-n2c(=O)n(C3CC3)c(=O)c3c(Nc4ccc(I)cc4F)n(C)c(=O)c(C)c32)c1 [Trametinib] + Cc1nc(-c2cn3c(n2)-c2ccc(-c4cnn(C(C)(C)C(N)=O)c4)cc2OCC3)n(C(C)C)n1 [Taselisib] (first compound max 1 µM, 7x7, partner max 10 µM) | 0.961 | 0.773 | 0.75 | 0.643 | 0.94 | 0.481 | 0.686 | 0.769 | 0.985 | 1 | 0.936 | 0.97 | 0.669 | 0.665 | 0.753 | 0.674 | 0.778 | 0.6 | 0.929 | 0.694
CC1(C)CCC(CN2CCN(c3ccc(C(=O)NS(=O)(=O)c4ccc(NCC5CCOCC5)c([N+](=O)[O-])c4)c(Oc4cnc5[nH]ccc5c4)c3)CC2)=C(c2ccc(Cl)cc2)C1 [Venetoclax] + CN(C)CCCOc1ccc(-c2ccc3ncc4c(c3c2)n(C2CCOCC2)c(=O)n4C)cn1 [AZD0156] (first compound max 1 µM, 7x7, partner max 1 µM) | 0.325 | 0.41 | 0.098 | 0.78 | 0.269 | 0.152 | 0.14 | 0.304 | 0.362 | 0.245 | 0.48 | 0.281 | 0.16 | 0.546 | 0.15 | 0.174 | 0.242 | 0.323 | 0.465 | 0.32
Cc1c2c(nn1C)CSCc1cc(n(C)n1)CSc1cc(c3ccccc3c1)OCCCc1c(C(=O)O)n(C)c3c-2c(Cl)ccc13 [AZD5991] + C=CCn1c(=O)c2cnc(Nc3ccc(N4CCN(C)CC4)cc3)nc2n1-c1cccc(C(C)(C)O)n1 [AZD1775] (first compound max 1 µM, partner max 1 µM) | 0.649 | 0.496 | 0.89 | 0.938 | 1 | 0.33 | 0.507 | 0.498 | 0.586 | 0.437 | 0.879 | 0.722 | 0.346 | 0.778 | 0.763 | 0.851 | 0.705 | 0.402 | 0.881 | 0.806
Cc1c2c(nn1C)CSCc1cc(n(C)n1)CSc1cc(c3ccccc3c1)OCCCc1c(C(=O)O)n(C)c3c-2c(Cl)ccc13 [AZD5991] + Cn1cnc2c(F)c(Nc3ccc(Br)cc3Cl)c(C(=O)NOCCO)cc21 [Selumetinib] (first compound max 1 µM, 7x7, partner max 3 µM) | 0.485 | 0.595 | 0.655 | 0.4 | 1 | 0.334 | 0.278 | 0.454 | 0.716 | 0.322 | 0.581 | 0.49 | 0.276 | 0.282 | 0.331 | 0.383 | 0.426 | 0.214 | 0.828 | 0.381
CCc1c2c(nc3ccc(O)cc13)-c1cc3c(c(=O)n1C2)COC(=O)[C@]3(O)CC [SN-38] + CN(C)CCCOc1ccc(-c2ccc3ncc4c(c3c2)n(C2CCOCC2)c(=O)n4C)cn1 [AZD0156] (first compound max 0.3 µM, 7x7, partner max 1 µM) | 0.722 | 0.39 | 0.522 | 0.951 | 0.932 | 0.497 | 0.804 | 0.409 | 0.836 | 0.709 | 0.914 | 0.618 | 0.716 | 0.482 | 0.767 | 0.99 | 0.664 | 0.781 | 0.988 | 0.62
CCN(CCO)CCCOc1ccc2c(Nc3cc(CC(=O)Nc4cccc(F)c4)[nH]n3)ncnc2c1 [AZD2811] + C=CCn1c(=O)c2cnc(Nc3ccc(N4CCN(C)CC4)cc3)nc2n1-c1cccc(C(C)(C)O)n1 [AZD1775] (first compound max 1 µM, partner max 1 µM) | 0.416 | 0.346 | 0.601 | 0.999 | 0.771 | 0.177 | 0.367 | 0.33 | 0.56 | 0.296 | 0.771 | 0.651 | 0.369 | 0.467 | 0.61 | 0.329 | 0.161 | 0.279 | 0.463 | 0.761
CC(=O)c1c(C)c2cnc(Nc3ccc(N4CCNCC4)cn3)nc2n(C2CCCC2)c1=O [Palbociclib] + Cc1c2c(nn1C)CSCc1cc(n(C)n1)CSc1cc(c3ccccc3c1)OCCCc1c(C(=O)O)n(C)c3c-2c(Cl)ccc13 [AZD5991] (first compound max 10 µM, 7x7, partner max 1 µM) | 0.363 | 0.404 | 0.194 | 0.626 | 0.896 | 0.0791 | 0.106 | 0.353 | 0.281 | 0.191 | 0.267 | 0.664 | 0.168 | 0.255 | 0.263 | 0.277 | 0.424 | 0.577 | 0.838 | 0.24
CN(CCO)CC[C@H](CSc1ccccc1)Nc1ccc(S(=O)(=O)NC(=O)c2ccc(N3CCC([C@@H](O)c4ccccc4-c4ccc(Cl)cc4)CC3)cc2)cc1S(=O)(=O)C(F)(F)F [AZD4320] + CN(C)CCCOc1ccc(-c2ccc3ncc4c(c3c2)n(C2CCOCC2)c(=O)n4C)cn1 [AZD0156] (first compound max 1 µM, 7x7, partner max 1 µM) | 0.217 | 0.21 | 0.37 | 0.125 | 0.145 | 0.0423 | 0.245 | 0.375 | 0.307 | 0.202 | 0.0929 | 0.291 | 0.106 | 0.797 | 0.0751 | 0.203 | 0.194 | 0.876 | 0.14 | 0.963
CCN(CCO)CCCOc1ccc2c(Nc3cc(CC(=O)Nc4cccc(F)c4)[nH]n3)ncnc2c1 [AZD2811] + O=C(c1cc(Cc2n[nH]c(=O)c3ccccc23)ccc1F)N1CCN(C(=O)C2CC2)CC1 [Olaparib] (first compound max 1 µM, 7x7, partner max 10 µM) | 0.184 | 0.186 | 0.105 | 0.211 | 0.303 | 0.145 | 0.245 | 0.189 | 0.265 | 0.281 | 0.195 | 0.714 | 0.382 | 0.322 | 0.33 | 0.13 | 0.155 | 0.337 | 0.364 | 0.532
COc1cccc2c1C(=O)c1c(O)c3c(c(O)c1C2=O)C[C@@](O)(C(=O)CO)C[C@@H]3O[C@H]1C[C@H](N)[C@H](O)[C@H](C)O1 [Doxorubicin] + Cc1cc2ncnn2cc1Nc1ncc2c(n1)n(C1CCOCC1)c(=O)n2C [AZD7648] (first compound max 1 µM, 7x7, partner max 10 µM) | 0.821 | 0.43 | 0.736 | 0.913 | 0.971 | 0.203 | 0.437 | 0.773 | 0.889 | 0.329 | 0.831 | 0.514 | 0.563 | 0.437 | 0.801 | 0.973 | 0.619 | 0.719 | 0.874 | 0.497
NC1(C(=O)N[C@@H](CCO)c2ccc(Cl)cc2)CCN(c2ncnc3[nH]ccc23)CC1 [Capivasertib] + COc1nnc2ccc(N3CCC(c4ccc(OCCN5CCN(C)C(=O)[C@H]5C)cc4)CC3)nn12 [AZD5153] (first compound max 10 µM, 7x7, partner max 1 µM) | 0.585 | 0.457 | 0.485 | 0.672 | 0.749 | 0.0398 | 0.529 | 0.63 | 0.536 | 0.508 | 0.799 | 0.656 | 0.296 | 0.538 | 0.324 | 0.951 | 0.648 | 0.756 | 0.389 | 0.867
